Assay results: US6784201B2, “Benzothiepines having activity as inhibitors of ileal bile acid transport and taurocholate uptake” (G.D. Searle & Company, priority 1994, dated 2004)
Like-named read-outs stand apart in the source and are kept apart here.

Columns and labels:
[1] = test system: Rabbit Ileal brush border membranes; test: [3H]taurocholate uptake in rabbit brush border membrane vesicles (BBMV); assay type: biochemical; settings: read-out: TC-uptake (BBMV) IC(50)
Protocol: [^3H]Taurocholate Uptake in Rabbit Brush Border Membrane Vesicles (BBMV)
Rabbit Ileal brush border membranes were prepared from frozen iheal mucosa by the calcium precipitation method describe by Malathi et al. (Reference: (1979) Biochimica Biophysica Acta, 554, 259). The method for measuring taurocholate was essentially as described by Kramer et al. (Reference: (1992) Biochimica Biophysica Acta, 1111, 93) except the assay volume was 200 μl instead of 100 μl.

[2] = test system: Serum Cholesterol; test: Determination of serum cholesterol, rat Alzet minipump model; assay type: in vivo; settings: 20 MPL/DAY, mean (SEM)
Protocol: (§1) Determination of Serum Cholesterol (SER.CHOL, HDL-CHOL, TGI and VLDL+LDL)
(§2) Total serum cholesterol (SER.CHOL) was measured enzymatically using a commercial kit from Wako Fine Chemicals (Richmond, Va.); Cholesterol C11, Catalog No. 276-64909. HDL cholesterol (HDL-CHOL) was assayed using this same kit after precipitation of VLDL and LDL with Sigma Chemical Co. HDL Cholesterol reagent, Catalog No. 352-3 (dextran sulfate method). Total serum triglycerides (blanked) (TGI) were assayed enzymatically with Sigma Chemical Co. GPO-Trinder, Catalog No. 337-B. VLDL and LDL (VLDL+LDL) cholesterol concentrations were calculated as the difference between total and HDL cholesterol.

[3] = test system: Serum Cholesterol; test: Determination of serum cholesterol (SER.CHOL, HDL-CHOL, TGI, VLDL+LDL), cholesterol-fed hamsters; assay type: in vivo, hamster; settings: 0.2% Cpd. No. 25, mean (SEM)
Protocol: as §1, §2

[4] = test system: Hepatic HMG CoA-Reductase; test: Hepatic HMG CoA-reductase activity, rat Alzet minipump model; assay type: in vivo; settings: 20 MPL/DAY, mean (SEM)
Protocol: Measurement of Hepatic HMG CoA-Reductase Activity (HMG COA)
Hepatic microsomes were prepared by homogenizing liver samples in a phosphate/sucrose buffer, followed by centrifugal separation. The final pelleted material was resuspended in buffer and an aliquot was assayed for HMG CoA reductase activity by incubating for 60 minutes at 37° C. in the presence of ^14C-HMG-CoA (Dupont-NEN). The reaction was stopped by adding 6N HCl followed by centrifugation. An aliquot of the supernatant was separated, by thin-layer chromatography, and the spot corresponding to the enzyme product was scraped off the plate, extracted and radioactivity was determined by scintillation counting. (Reference: Akerlund, J. and Bjorkhem, I. (1990) J. Lipid Res. 31, 2159).

[5] = biological target: T1, human IBAT (Homo sapiens, UniProt Q12908); test: In vitro assay of IBAT-mediated uptake of [14C]-taurocholate (TC) in H14 cells; assay type: cell-based
T1 construct: expressed in transfected cells; host or cells: Baby hamster kidney (BHK) cells, clone H14
T1 sequence (Q12908 1-348): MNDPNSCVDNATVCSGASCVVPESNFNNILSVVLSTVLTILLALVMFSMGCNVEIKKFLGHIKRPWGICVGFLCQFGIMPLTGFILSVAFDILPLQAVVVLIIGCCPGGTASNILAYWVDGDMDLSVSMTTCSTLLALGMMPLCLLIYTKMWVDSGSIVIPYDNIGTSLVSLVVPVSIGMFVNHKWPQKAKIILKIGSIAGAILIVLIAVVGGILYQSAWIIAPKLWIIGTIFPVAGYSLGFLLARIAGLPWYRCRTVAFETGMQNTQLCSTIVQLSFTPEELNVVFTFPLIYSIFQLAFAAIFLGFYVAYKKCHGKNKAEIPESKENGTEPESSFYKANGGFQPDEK
In short: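 BHK cells stably expressing human IBAT (H14) were incubated 2 h at 37° C with compound and 3 μM final [14C]-taurocholate in DMEM (4.5 g/L glucose) plus 0.2% fatty acid-free BSA. After cold PBS washes, cell-associated radioactivity was measured by scintillation counting.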

[6] = biological target: ACAT; test: Acyl-CoA; cholesterol acyl transferase (ACAT), hamster liver microsomes; assay type: biochemical; settings: read-out: ACAT (liver) IC(50)
Protocol: (§3) Acyl-CoA; Cholesterol Acyl Transferase (ACAT)
(§4) Hamster liver and rat intestinal microsomes were prepared from tissue as described previously (Reference: (1980) J. Biol. Chem. 255, 9098) and used as a source of ACAT enzyme. The assay consisted of a 2.0 ml incubation containing 24 μM Oleoyl-CoA (0.05 μCi) in a 50 mM sodium phosphate, 2 mM DTT ph 7.4 buffer containing 0.25% BSA and 200 μg of microsomal protein. The assay was initiated by the addition of oleoyl-CoA. The reaction went for 5 min at 37° C. and was terminated by the addition of 8.0 ml of chloroform/methanol (2:1). […] The chloroform phase was taken to dryness and then spotted on a silica gel 60 TLC plate and developed in hexane/ethyl ether (9:1). The amount of cholesterol ester formed was determined by measuring the amount of radioactivity incorporated into the cholesterol oleate spot on the TLC plate with a Packard instaimager.

[7] = Efficacy in cholesterol-fed hamsters: body, liver and fecal weight; assay type: in vivo, hamster; settings: 0.2% Cpd. No. 25, mean (SEM)
[8] = biological target: ACAT; test: Acyl-CoA; cholesterol acyl transferase (ACAT), rat intestinal microsomes; assay type: biochemical; settings: read-out: ACAT intestine IC(50)
Protocol: as §3, §4

IC50 [1]: 800 nM
IC50 ([5]; H14 cells, Table 5, read-out: IC50 uM (In vitro Taurocholate Cell Uptake)): 0.1 µM
IC50 ([5]; Table 6, read-out: TC-uptake (H14 cells) IC(50)): 0.1 µM
IC50 [6]: 8000 nM
LIVER WEIGHT (G) [7]: 5.8 (0.2) G
WEIGHT (G) day 1 [7]: 117 (5) G
WEIGHT (G) day 14 [7]: 132 (4) G
IC50 [8]: 8000 nM
SMILES: CCCC[C@]1(CC)CS(=O)(=O)c2cc(OC)ccc2[C@@H](c2ccccc2)[C@H]1O [Example 25, (3α,4β,5β) 3-Butyl-3-ethyl-4-hydroxy-8-methoxy-5-phenyl-2,3,4,5-tetrahydrobenzothiepine-1,1-dioxide]
SER.CHOL (mg %) [2]: 84 (3) mg %
HDL-CHOL (mg %) [3]: 76 (1) *A, B mg %
SER.CHOL (mg %) [3]: 126 (2) mg %
TGI (mg %) [3]: 175 (11) mg %
VLDL + LDL ([3]; difference total minus HDL cholesterol): 50 (3)
HMG COA pm/mg/min [4]: 318.0 (40.7) *A, B pm/mg/min
